Values quoted from earlier work, collected in US20260031189A1, “METHOD AND SYSTEMS FOR PREDICTION OF HLA CLASS II-SPECIFIC EPITOPES AND CHARACTERIZATION OF CD4+ T CELLS” (BioNTech US Inc., priority 2022, published 2026).

Settings: with NYESO-1 peptide vaccine and Montanide; ovarian carcinoma; cited from earlier work

Substance: poly-ICLC
- patients with induction of CD4+ and CD8+ T cell and antibody responses to the peptide: > 90%
